Laboratory results: patent US10278942B2 (PELOTON THERAPEUTICS, INC., priority 2015, dated 2019)
Where two headings read alike, the source gives them in different places.

What was measured:
[1] = target: T1, HIF-2α HIS TAG-PASB Domain (Homo sapiens, UniProt Q99814); experiment: HIF-2α Scintillation Proximity Assay (SPA); assay type: binding
T1 construct: 100 nM HIF-2α HIS TAG-PASB Domain
Procedure, shortened: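 IC50 values rest on percent inhibition, where the sample signal is scaled between high and low controls. Wells contain about 100 μL: compound dispensed as 2 μL of DMSO solution, 88 μL protein-probe mix and 10 μL of beads.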

[2] = test system: 786-O-Hif-Luc cells; experiment: Luciferase Assay (HIF responsive elements reporter)
Procedure: A pool of infected cells were then selected against 2 μg/mL of puromycin (P8833, Sigma) for 10 days followed by limited dilution to select single clones. […] Each concentration was tested in triplicate. After about 24 hours, luciferase activity was determined using ONE-Glo Luciferase Assay Reagent (E6110, Promega) following the manufacturer's recommended procedure. EC50 were calculated using Dotmatics software.

[3] = read-out: Scintillation Proximity Assay IC50
[4] = read-out: Mean Luciferase EC50 (nM), 786-O-Hif-Luc cells
[5] = Scintillation Proximity Assay IC50 (nM)
[6] = read-out: Mean Luciferase EC50 (nM)

T1 sequence (Q99814 240-350 limits assumed): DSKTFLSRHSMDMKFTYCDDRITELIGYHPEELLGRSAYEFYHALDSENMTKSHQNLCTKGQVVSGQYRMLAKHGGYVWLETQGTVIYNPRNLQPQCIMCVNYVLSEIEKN

Structure (SMILES) | IC50 [1, 3] [nM] | EC50 [2, 4] [nM] | IC50 [1, 5] [nM] | EC50 [2, 6] [nM]
Cc1nnc(/C=C/c2c(S(=O)(=O)C(F)(F)F)ccc(Oc3cc(F)cc(C#N)c3)c2C)o1 [Compound 151] | > 1000 | > 1000 |  | 
[2H]C1(O)c2c(ccc(Oc3cc(F)cc(Cl)c3)c2C(F)F)S(=O)(=O)C1(F)F (stereo not shown) [Compound 371] |  |  | < 50 | < 50
Cc1cncc(Oc2ccc(S(C)(=O)=O)c3c2CC(F)(F)[C@H]3O)n1 [Compound 201] | < 50 | > 1000 |  | 
O=S(=O)(c1ccc(Oc2cc(F)cc(Cl)c2)c(Br)c1CNCc1ccccc1)C(F)(F)F [Compound 110] | > 1000 | > 1000 |  | 
O=S(=O)(c1ccc(OC2CCC2)c2c1C(O)CC2)C(F)(F)F (stereo not shown) [Compound 601] | 250 to 1000 | > 1000 |  | 
CS(=O)(=O)c1ccc(OCC(F)F)c2c1[C@H](O)C(F)(F)[C@@H]2F [Compound 755] | 50 to 249 | > 1000 |  | 
CS(=O)(=O)c1ccc(OC[C@H]2C[C@H]2C#N)c2c1[C@H](O)C(F)(F)[C@@H]2F [Compound 765] | 250 to 1000 | > 1000 |  | 
O/N=C1/c2c(C(F)(F)F)ccc(OCC(F)F)c2CC1(F)F [Compound 580] | 250 to 1000 | > 1000 |  | 
O=S(=O)(c1ccc(Oc2cc(F)cc(Cl)c2)c(Br)c1)C(F)F [Compound 131] |  | > 1000 | 250 to 1000 | 
C[C@@H]1Cc2c(Oc3cc(F)cc(C#N)c3)ccc(S(C)(=O)=O)c2[C@@H]1O [Compound 301] | > 1000 | > 1000 |  | 
O=S(=O)(c1ccc(CCO)c2c1[C@H](O)C(F)(F)C2)C(F)(F)F [Compound 496, (S)-2,2-difluoro-4-(2-hydroxyethyl)-7-((trifluoromethyl)sulfonyl)-2,3-dihydro-1H-inden-1-ol] | 250 to 1000 | > 1000 |  | 
NC1c2cc(Oc3cc(F)cc(Cl)c3)ccc2S(=O)(=O)C1(F)F (stereo not shown) [Compound 358] | 50 to 249 | > 1000 |  | 
O=S(=O)(c1ccc(OCc2ccccn2)c2c1C(O)C(F)(F)C2)C(F)(F)F (stereo not shown) [Compound 665] | > 1000 | > 1000 |  | 
CC(O)c1c(S(=O)(=O)C(F)(F)F)ccc(Oc2cc(F)cc(Cl)c2)c1Br (stereo not shown) [Compound 103] | 250 to 1000 | > 1000 |  | 
O=S(=O)(c1ccc(C2CC2)c2c1C(O)C(F)(F)C2)C(F)(F)F (stereo not shown) [Compound 513] | 250 to 1000 | > 1000 |  | 
CS(=O)(=O)c1ccc(Sc2cccc(C#N)c2)c2c1[C@H](O)C(F)(F)[C@@H]2F [Compound 492, 3-(((1S,3R)-2,2,3-trifluoro-1-hydroxy-(methylsulfonyl)-2,3-dihydro-1H-inden-4-yl)thio)benzonitrile] | > 1000 | > 1000 |  | 

Structure (SMILES) | IC50 [1, 3] [nM] | EC50 [2, 4] [nM] | IC50 [1, 5] [nM] | EC50 [2, 6] [nM]
CS(=O)(=O)c1ccc(OCC(F)(F)F)c2c1[C@H](O)C(F)(F)[C@@H]2F [Compound 751] | 50 to 249 | > 1000 |  | 
Cc1c(S(C)(=O)=O)ccc(Oc2cc(F)cc(Cl)c2)c1C(F)F [Compound 53] | 250 to 1000 | > 1000 |  | 
O=S(=O)(c1ccc(Oc2c(F)ccc3[nH]ncc23)c2c1[C@H](O)C(F)(F)C2)C(F)(F)F [Compound 264] | 250 to 1000 | > 1000 |  | 
CS(=O)(=O)c1ccc(O[C@H]2C[C@H](F)C2)c2c1[C@H](O)C(F)(F)[C@H]2F [Compound 737] | 50 to 249 | > 1000 |  | 
CS(=O)(=O)c1ccc(Oc2cc(F)cc(C#N)c2)c2c1[C@H](O)[C@H](F)[C@@H]2O [Compound 296] | > 1000 | > 1000 |  | 
Cc1cncc(Oc2ccc3c(c2Br)[C@@H](O)C(F)(F)S3(=O)=O)c1 [Compound 428] | > 1000 | > 1000 |  | 
CC1(C)CC(c2ccc(S(=O)(=O)C(F)(F)F)c3c2CC(F)(F)[C@H]3O)=CC(O)C1 (stereo partly shown) [Compound 551] | 50 to 249 | > 1000 |  | 
O=S1(=O)c2ccc(OCC3CC3)c(C(F)F)c2[C@@H](O)C1(F)F [Compound 439] | > 1000 | > 1000 |  | 
O=S1(=O)c2ccc(Oc3cc(F)cc(Cl)c3)c(Br)c2[C@@H](O)C1(F)F [Compound 403] |  |  | < 50 | < 50
N#Cc1cncc(Oc2ccc(S(=O)(=O)C(F)(F)F)c3c2CCC3O)c1 (stereo not shown) [Compound 220] | 250 to 1000 | > 1000 |  | 
NCc1c(S(=O)(=O)C(F)F)ccc(Oc2cc(F)cc(Cl)c2)c1Br [Compound 85] |  | > 1000 | > 1000 | 
CS(=O)(=O)c1ccc(OC2CC(F)(F)C2)c2c1[C@H](O)C(F)(F)[C@H]2F [Compound 575, (1S,3S)-4-(3,3-difluorocyclobutoxy)-2,2,3-trifluoro-7-(methylsulfonyl)-2,3-dihydro-1H-inden-1-ol] | 250 to 1000 | > 1000 |  | 
COC(=O)COc1ccc(S(=O)(=O)C(F)(F)F)c2c1CC(F)(F)C2O (stereo not shown) [Compound 639] | > 1000 | > 1000 |  | 
O[C@H]1c2c(C(F)(F)F)ccc(OCCCF)c2[C@H](F)C1(F)F [Compound 701] | 50 to 249 | > 1000 |  | 
O=C1c2c(S(=O)(=O)C(F)F)ccc(Oc3cncc(Cl)c3)c2CC1(F)F [Compound 182] | 250 to 1000 | > 1000 |  | 
O=S(=O)(c1ccc(Oc2cc(F)cc(Cl)c2)c(Cl)c1CNCCF)C(F)(F)F [Compound 114] | > 1000 | > 1000 |  | 

Second part, led by results:

IC50 [1, 3] [nM] | EC50 [2, 4] [nM] | Structure (SMILES) | IC50 [1, 5] [nM] | EC50 [2, 6] [nM]
< 50 | 250 to 1000 | O=S(=O)(c1ccc(Oc2ccc(F)c(Br)c2)c2c1[C@H](O)C(F)(F)C2)C(F)F [Compound 194] |  | 
250 to 1000 | 250 to 1000 | CC(C)(O)COc1ccc(S(=O)(=O)C(F)(F)F)c2c1CC(F)(F)[C@H]2O [Compound 750] |  | 
< 50 | 50 to 249 | CO[C@H]1C[C@@H](Oc2ccc(S(=O)(=O)C(F)(F)F)c3c2CC(F)(F)[C@H]3O)C1 [Compound 715] |  | 
50 to 249 | 50 to 249 | O=S(=O)(CF)c1ccc(Oc2cncc(Cl)c2)c2c1[C@H](O)C(F)(F)C2 [Compound 187] |  | 
< 50 | 250 to 1000 | Cc1c(S(C)(=O)=O)ccc(Oc2cc(F)cc(F)c2)c1C#N [Compound 52] |  | 
250 to 1000 | 50 to 249 | N#Cc1cncc(Oc2ccc(S(=O)(=O)C(F)F)c3c2CC(F)(F)[C@H]3O)c1 [Compound 27] |  | 
250 to 1000 | 250 to 1000 | O=S(=O)(c1ccc(Oc2cncc(Cl)c2)c2c1[C@H](O)CC2)C(F)F [Compound 3] |  | 
< 50 | 250 to 1000 | CS(=O)(=O)c1ccc(Oc2cc(F)cc(Cl)c2)c(C(F)F)c1C#N [Compound 92] |  | 
50 to 249 | 250 to 1000 | O=S(=O)(c1ccc(OCc2ccccc2)c2c1C(O)C(F)(F)C2)C(F)(F)F (stereo not shown) [Compound 663] |  | 
250 to 1000 | 250 to 1000 | N#Cc1cc(F)cc(Nc2ccc(S(=O)(=O)C(F)(F)F)c3c2CCC3O)c1 (stereo not shown) [Compound 505] |  | 
< 50 | 50 to 249 | N[C@@H]1c2c(ccc(Oc3cc(F)cc(F)c3)c2C(F)F)S(=O)(=O)C1(F)F [Compound 401] |  | 
< 50 | 50 to 249 | N#Cc1cc(F)cc(-c2ccc(S(=O)(=O)C(F)(F)F)c3c2CC(F)(F)[C@H]3O)c1 [Compound 486, (S)-3-(2,2-difluoro-1-hydroxy-7((trifluoromethyl)sulfonyl)-2,3-dihydro-1H-inden-4-yl)-5-fluorobenzonitrile] |  | 
< 50 | < 50 | O[C@H]1c2c(C(F)(F)F)ccc(OCCCF)c2[C@@H](F)C1(F)F [Compound 582] |  | 
50 to 249 | 50 to 249 | CS(=O)(=O)c1ccc(Oc2cc(F)cc(C#N)c2)c2c1[C@H](O)C(F)(Cl)C2 (stereo partly shown) [Compound 270] |  | 
250 to 1000 | 250 to 1000 | N#Cc1c(Oc2cccc(F)c2)ccc2c1[C@@H](O)CS2(=O)=O [Compound 422] |  | 
250 to 1000 | 250 to 1000 | CCOc1ccc(S(=O)(=O)C(F)(F)F)c2c1CC(F)(F)C2O (stereo not shown) [Compound 591] |  | 
50 to 249 | 250 to 1000 | C[C@]1(C#N)C[C@H](Oc2ccc(S(=O)(=O)C(F)(F)F)c3c2CC(F)(F)[C@H]3O)C1 [Compound 788] |  | 
< 50 | < 50 | N#CC1(COc2ccc(S(=O)(=O)C(F)(F)F)c3c2C[C@@H](F)[C@H]3O)CC1 [Compound 661] |  | 
50 to 249 | 250 to 1000 | CS(=O)(=O)c1ccc(Oc2cncc(Br)c2)c2c1[C@H](O)C(F)(F)C2 [Compound 324] |  | 
50 to 249 | 250 to 1000 | O/N=C1/c2c(C(F)(F)F)ccc(OCC(F)F)c2[C@@H](F)C1(F)F [Compound 669] |  | 
50 to 249 | < 50 | CCCOc1ccc(S(=O)(=O)C(F)(F)F)c2c1CC(F)(F)C2O (stereo not shown) [Compound 584] |  | 
< 50 | 50 to 249 | O=S(=O)(c1ccc(Oc2ccc(F)c(Cl)c2)c2c1[C@H](O)C(F)(F)C2)C(F)F [Compound 26] |  | 
250 to 1000 | 250 to 1000 | O=S(=O)(c1ccc(O[C@H]2C[C@H](O)C2)c2c1C(O)C(F)(F)C2)C(F)(F)F (stereo partly shown) [Compound 644] |  | 
< 50 | 250 to 1000 | COCCCOc1ccc(S(=O)(=O)C(F)(F)F)c2c1CC(F)(F)C2O (stereo not shown) [Compound 608] |  | 
50 to 249 | 50 to 249 | O=S(=O)(c1ccc(OC2CCOCC2)c2c1C(O)C(F)(F)C2)C(F)F (stereo not shown) [Compound 782] |  | 
< 50 | 50 to 249 | N#Cc1c(Oc2cc(F)cc(Cl)c2)ccc2c1[C@@H](O)CS2(=O)=O [Compound 348] |  | 
< 50 | < 50 | O=S(=O)(c1ccc(OCC2CCC2)c2c1[C@H](O)C(F)(F)C2)C(F)(F)F [Compound 716] |  | 
< 50 | < 50 | CCCOc1ccc(C(F)(F)F)c2c1CC(F)(F)[C@H]2O [Compound 704] |  | 
50 to 249 | 50 to 249 | OC1c2c(I)ccc(OCC(F)F)c2CC1(F)F (stereo not shown) [Compound 681] |  | 
250 to 1000 | 250 to 1000 | O=S1(=O)c2ccc(OCc3ccccc3)c(C(F)F)c2C(O)C1(F)F (stereo not shown) [Compound 411] |  | 
